Reference: patent US20250073255A1, “USE OF FA-TYPE LIPID COMPOUNDS IN PREPARATION OF NUCLEIC ACID DELIVERY REAGENT AND RELATED PRODUCT” (BEIJING BAISHIKANG PHARMACEUTICAL TECHNOLOGY (BSJPHARMA) …, priority 2021, published 2025)

Tested on: C57BL/6 male mice
Assay: In vivo delivery study of lipid nucleic acid mixture (oral gavage, RT-qPCR of PGY-sRNA-26 in tissues)
Parameters: species or system mouse
Settings: for oral delivery of single-stranded sRNA nucleic acids into mouse blood / oral delivery of single-stranded sRNA nucleic acids into mouse brain tissue / oral delivery of single-stranded sRNA nucleic acids into mouse femur / oral delivery of single-stranded sRNA nucleic acids into mouse heart tissue / oral delivery of single-stranded sRNA nucleic acids into mouse intestinal tissue / oral delivery of single-stranded sRNA nucleic acids into mouse kidney tissue / oral delivery of single-stranded sRNA nucleic acids into mouse liver tissue / oral delivery of single-stranded sRNA nucleic acids into mouse lung tissue / oral delivery of single-stranded sRNA nucleic acids into mouse pancreatic tissue / oral delivery of single-stranded sRNA nucleic acids into mouse spleen tissue / oral delivery of single-stranded sRNA nucleic acids into mouse stomach tissue: 100 μg lipid:10 nmol PGY-sRNA-26, sampled after 12 hours; for oral delivery of single-stranded sRNA nucleic acids into mouse heart tissue: vs free uptake group; for oral delivery of single-stranded sRNA nucleic acids into mouse intestinal tissue: intestine; for oral delivery of single-stranded sRNA nucleic acids into mouse pancreatic tissue: pancreas; for overall delivery efficacy: delivering nucleic acids into each tissue and blood tested: 100 μg lipid:10 nmol PGY-sRNA-26, all tissues and blood tested
Method: 10 nmol of small RNA (as shown in Table 2) was dissolved in 400 μl of DEPC-treated water in a glass tube, 10 μl of the corresponding lipid stock solution was added such that the lipid mass in the system was 100 μg. The mixture was mixed thoroughly, heated in a 90° C. water bath for 15 minutes, and then cooled naturally to obtain the lipid nucleic acid mixture of lipid and small RNA.
C57BL/6 male mice, approximately 6 weeks old, weighing […], were obtained from Beijing Vital River Laboratory Animal Technology Co., Ltd. The mice were housed in the SPF-grade animal facility at the Animal Center of the Institute of Basic Medical Sciences, Chinese Academy of Medical Sciences. The mice were fasted for 12 hours before gavage administration.
The lipid nucleic acid mixture was prepared following the method described in Example 2. The resultant lipid nucleic acid mixture was orally administered to each mouse at a dose of 100 μg lipid:10 nmol single-stranded 3-methylated small RNA PGY-sRNA-26.
• 1) Blank group (n=4): mice were administered with 500 μl saline by gavage, this group served as a blank control; • 2) Free uptake group (n=4): mice were directly administered with small RNA PGY-sRNA-26 solution (10 nmol/mouse, 500 l) by gavage, this group served as a negative control; • 3) Lipid-treated group (n=4): mice were administered with 500 μl lipid nucleic acid mixture prepared in step 2 by gavage.
After 12 hours of gavage administration, 500 μl blood from the eyeball of each mouse was sampled, added to 1.5 ml Trizol Reagent LS (purchased from Invitrogen), thoroughly mixed for lysis. 3 ml of Trizol Reagent LSwas added to tissue samples and homogenized for complete lysis, wherein the sampled tissues include heart, liver, spleen, lung, kidney, stomach, intestine, brain, blood, femur, pancreas. RNAwas extracted from 1 ml of the blood or the tissue lysate following the steps below: • Centrifuge at 4° C., 12,000 rpm for 5 min, discard the precipitate, transfer Trizol to a new centrifuge tube; • Add chloroform at 200 μL chloroform/mL Trizol, shake well, stand at room temperature for 5 min; • Centrifuge at 4° C., 12,000 rpm for 15 min; • Take the upper aqueous phase to another centrifuge tube, add isopropanol at 0.4 mL isopropanol/mL Trizol, mix well, and stand at low temperature for 10-20 min; • Centrifuge at 4° C., 12,000 rpm for 15 min, discard the supernatant, RNA precipitated at the bottom of the tube; • Add 1 mL of 75% ethanol, gently shake the centrifuge tube, suspend the precipitate; • Centrifuge at 4° C., 12,000 rpm for 15 min, discard the supernatant, add 1 mL of 75% ethanol, gently shake the centrifuge tube, suspend the precipitate; • Centrifuge at 4° C., 12,000 rpm for 15 min, discard the supernatant, air-dry at room temperature, dissolve RNA samples in 50 μL RNase-free H2O, measure OD value to quantify RNA concentration. 3.3 Reverse Transcription of sRNA to cDNA:
sRNA was reverse transcribed to cDNA using the High-Capacity cDNA Reverse Transcription Kit (Applied Biosystems, cat. no. 4368813) by stem-loop method (see, e.g., “Real-time quantification of microRNAs by stem-loop RT-PCR, Nucleic Acids Res. 2005 Nov. 27; 33(20):e179”, incorporated herein by reference). The reverse transcription system is as follows: Template RNA (200 ng/μL) 10 μL, 10×RT Buffer 2.0 μL, 25×dNTP Mix (100 mM) 0.8 μL, U6 RT stem-loop primer (10 μM) 2.0 μL, PGY-sRNA-26 RT stem-loop primer (10 μM) 2.0 μL, MultiScribe™ Reverse Transcriptase (50 U/μL) 1.0 μL, RNAse Inhibitor (40 U/μL) 1.0 μL, nuclease-free H2O 1.2 μL. After transient centrifugation, the reverse transcription system was placed in a PCR machine with the following reaction conditions: (1) 25° C., 10 min; (2) 37° C., 120 min; (3) 85° C., 5 min; (4) 4° C., stop reaction. After the reaction, add 20 μL RNAse-free ddH2O, adjust the final volume to 40 μL. […]

Row | SMILES | oral delivery of single-stranded sRNA nucleic acids into mouse blood | oral delivery of single-stranded sRNA nucleic acids into mouse brain tissue | oral delivery of single-stranded sRNA nucleic acids into mouse femur | oral delivery of single-stranded sRNA nucleic acids into mouse heart tissue | oral delivery of single-stranded sRNA nucleic acids into mouse intestinal tissue | oral delivery of single-stranded sRNA nucleic acids into mouse kidney tissue | oral delivery of single-stranded sRNA nucleic acids into mouse liver tissue | oral delivery of single-stranded sRNA nucleic acids into mouse lung tissue | oral delivery of single-stranded sRNA nucleic acids into mouse pancreatic tissue | oral delivery of single-stranded sRNA nucleic acids into mouse spleen tissue | oral delivery of single-stranded sRNA nucleic acids into mouse stomach tissue | overall delivery efficacy: delivering nucleic acids into each tissue and blood tested
1 | CCCC/C=C\CCCCCCCC(=O)OCCCCCCCCCCCCCCCCCCCCCC [Lipid 817, docosyl (Z)-tetradec-9-enoate] | can effectively orally deliver | can effectively orally deliver | can effectively orally deliver | can effectively orally deliver | can effectively orally deliver | can effectively orally deliver | can effectively orally deliver | can effectively orally deliver | can effectively orally deliver | can effectively orally deliver | can effectively orally deliver | –
2 | CCCCCCCCCCCCCC(C)=O [Lipid 593, pentadecan-2-one] | can effectively orally deliver | can effectively orally deliver | can effectively orally deliver | can effectively orally deliver | can effectively orally deliver | can effectively orally deliver | can effectively orally deliver | can effectively orally deliver | – | can effectively orally deliver | can effectively orally deliver | best delivery efficacy
3 | CCCCCC/C=C\CCCCCCCC(=O)OCCCCCCCCCCCCCCCCCCCCCCC [Lipid 825, tricosyl (Z)-hexadec-9-enoate] | can effectively orally deliver | can effectively orally deliver | can effectively orally deliver | can effectively orally deliver | can effectively orally deliver | can effectively orally deliver | can effectively orally deliver | can effectively orally deliver | can effectively orally deliver | can effectively orally deliver | can effectively orally deliver | –
4 | CCCCCC/C=C\CCCCCCCC(=O)OCCCCCCCCCCCCCCCCCCC [Lipid 822, nonadecyl (Z)-hexadec-9-enoate] | can effectively orally deliver | can effectively orally deliver | can effectively orally deliver | can effectively orally deliver | can effectively orally deliver | can effectively orally deliver | can effectively orally deliver | can effectively orally deliver | can effectively orally deliver | can effectively orally deliver | can effectively orally deliver | best delivery efficacy
5 | O=C(O)CCCCCCCCCCCCCCC(=O)O [Lipid 529, hexadecanedioic acid] | can effectively orally deliver | can effectively orally deliver | can effectively orally deliver | can effectively orally deliver | can effectively orally deliver | can effectively orally deliver | can effectively orally deliver | can effectively orally deliver | – | can effectively orally deliver | can effectively orally deliver | best delivery efficacy
6 | N[C@@H](CCCC(=O)O)C(=O)O [Lipid 595, (2S)-2-aminohexanedioic acid] | can effectively orally deliver | can effectively orally deliver | can effectively orally deliver | can effectively orally deliver | can effectively orally deliver | can effectively orally deliver | can effectively orally deliver | can effectively orally deliver | – | can effectively orally deliver | can effectively orally deliver | best delivery efficacy
7 | CCCCCCCCCC(N)=O [Lipid 573, Decanamide] | can effectively orally deliver | can effectively orally deliver | can effectively orally deliver | can effectively orally deliver | can effectively orally deliver | – | can effectively orally deliver | – | – | can effectively orally deliver | can effectively orally deliver | –
